# Where two headings read alike, the source gives them in different places.
# How the values were obtained:
# G-401 cells = test: Cell proliferation inhibition experiment using G-401 cells; assay type: cell-based; settings: Homo sapiens, 72 h, cultured for 3 days, CellTiter-Glo
# Method in brief: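 Malignant rhabdoid tumor-derived cells, grown in McCoy's 5A with 10% FBS, were seeded at 500 cells/well and dosed one day later (final DMSO 0.1%). After 3 days of culture at 37° C, viability was read by CellTiter-Glo luminescence.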
# Kuramochi cells = test: Cell proliferation inhibition experiment using Kuramochi cells; assay type: cell-based; settings: 144 h, cultured for 6 days, CellTiter-Glo
# Method in brief: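 Ovarian cancer Kuramochi cells in RPMI-1640 with 10% FBS, seeded at 500 cells/well and dosed one day later at 0.1% final DMSO. After 6 days of culture at 37°C, 5% CO2, viability read by CellTiter-Glo luminescence.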
# RMGI cells = test: Cell proliferation inhibition experiment using RMGI cells; assay type: cell-based; settings: Homo sapiens, RMG-I, 144 h, cultured for 6 days, CellTiter-Glo
# Experimental: RMGI cells (derived from ovarian cancer) were obtained from JCRB cell bank. RMGI cells were cultured in Ham's F12 medium containing 10% fetal bovine serum and 1% penicillin/streptomycin under conditions of 37° C. and 5% CO2.
# 200 cells per well were seeded in a 384-well plate. One day after seeding, Examples 3, 7, 9, 10, 11, 20, and 23 to 25 were added so that the final concentration of DMSO was 0.1%, and the cells were cultured for 6 days. After the culture was completed, the cell viability was measured using CellTiter-Glo Luminescent Cell Viability Assay (Promega, G7570).
# Solubility test = assay type: physicochemical; settings: aqueous buffer, thermodynamic from solid, 5° C., overnight
# Experimental: The solubility was measured for Examples 7, 10, 20, 23, 24, and 30 to 34, Comparative Example 1, and Comparative Example 2. The test compound was added to 10 mmol/L glycine buffer (pH 2.0) and 10 mmol/L citrate buffer (pH 3.0), and the mixture was stored in a thermostatic chamber at 5° C. After standing overnight, the mixture was filtered through a membrane filter, and the concentration of the filtrate was measured by HPLC.
# [1] = Membrane permeability test (PAMPA); assay type: in vitro ADME
# Method in brief: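 Donor compartment held compound in system solution over a GIT Lipid-0 membrane, with sink buffer on the acceptor side; incubation 4 h at 37° C. Donor and acceptor concentrations were read by UV (190-500 nm), or by LC-MS for weakly absorbing compounds, and Pe (10^−6 cm/sec) was calculated.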
# G-401 xenograft = test: Drug efficacy evaluation by intravenous administration using G-401 xenograft mice model; assay type: in vivo; settings: for antitumor effect (in words): G-401 xenograft model, intravenous administration; for T/C: intravenous (tail vein), 14 days
# Experimental: G-401 cells (ATCC) were intradermally transplanted into 4-7-week-old BALB/cAnNCrj-nu/nu mice (CAnN.Cg-Foxn1/CrlCrlj, Jackson Laboratory Japan) at 5×10^5 cells/mouse. After confirming the engraftment of G-401 cells 10-40 days after transplantation, the test compound suspended in a solvent such as 10 mmol/L glycine buffer solution (pH 2.0) was administered via the tail vein at least once a week at a dose of 0.015-20 mg/kg. The tumor volume was measured over time from the start of administration, and the effect of tumor volume reduction by administration of the test compound was evaluated. The tumor volume can be calculated from the following equation using the minor axis and major axis of the tumor measured with an electronic caliper (Mitutoyo).
# A control administration group administered with only a solvent such as 10 mmol/L glycine buffer solution (pH 2.0) and a test compound administration group were compared, and the antitumor effect was evaluated by calculating T/C from the following equation.
# hDAT = hDAT (Homo sapiens (Human), UniProt Q01959); test: Dopamine receptor inhibitory activity evaluation (binding assay, CHO-S/hDAT membranes); settings: CHO-S/hDAT membrane preparation
# Experimental: The binding evaluation assay was outsourced to Eurofins. Specifically, CHO-S/hDAT cells were homogenized in an incubation buffer consisting of 50 mmol/L Tris-HCl, pH 7.4, 100 mmol/L NaCl, 1 μmol/L Leupeptin, and 10 μmol/L PMSF. The membrane pellet obtained by centrifugation was resuspended in the incubation buffer to prepare a membrane preparation. The test compound (1-10 μmol/L DMSO solution), the membrane preparation, and 0.15 nmol/L […] were mixed and incubated at 4° C. for 180 minutes. The cell membrane-[^125I]RTI-55 complex was bound to a GF/B filter mat by vacuum filtration and washed with 50 mmol/L Tris-HCl, pH 7.4. The effect on the receptor was assessed by measuring radioactivity using a scintillation counter.
# hSERT = hSERT (Homo sapiens (Human), UniProt P31645); test: Serotonin receptor inhibitory activity evaluation (binding assay, HEK293/hSERT membranes); settings: HEK293/hSERT membrane preparation, [3H]Paroxetin
# Experimental: The binding evaluation assay was outsourced to Eurofins. Specifically, HEK293/hSERT cells were homogenized in a buffer consisting of 100 mmol/L NaCl, 1 μmol/L Leupeptin, 10 μmol/L PMSF, and 50 mmol/L Tris-HCl (pH7.4). The membrane pellet obtained by centrifugation was resuspended in an incubation buffer consisting of 50 mmol/L Tris-HCl (pH 7.4), 120 mmol/L NaCl, and 5 mmol/L KCl to prepare a membrane preparation. The test compound (1-10 μmol/L DMSO solution), the membrane preparation, and 0.4 nmol/L [^3H]Paroxetin were mixed and incubated at 25° C. for 60 minutes. The cell membrane-[^3H]Paroxetin complex was bound to a GF/B filter mat by vacuum filtration and washed with 50 mmol/L Tris-HCl (pH 7.4). The effect on the receptor was assessed by measuring radioactivity using a scintillation counter.
# [2] = 10 mmol/L citrate buffer (pH 3.0), read-out: Solubility in pH 3.0 buffer
# [3] = 10 mmol/L glycine buffer (pH 2.0), read-out: Solubility in pH 2.0 buffer
# [4] = pH 5.0, 37° C., read-out: pH 5.0 Pe
# [5] = pH 7.4, 37° C., read-out: pH 7.4 Pe
# Sequence of hSERT (P31645 whole entry): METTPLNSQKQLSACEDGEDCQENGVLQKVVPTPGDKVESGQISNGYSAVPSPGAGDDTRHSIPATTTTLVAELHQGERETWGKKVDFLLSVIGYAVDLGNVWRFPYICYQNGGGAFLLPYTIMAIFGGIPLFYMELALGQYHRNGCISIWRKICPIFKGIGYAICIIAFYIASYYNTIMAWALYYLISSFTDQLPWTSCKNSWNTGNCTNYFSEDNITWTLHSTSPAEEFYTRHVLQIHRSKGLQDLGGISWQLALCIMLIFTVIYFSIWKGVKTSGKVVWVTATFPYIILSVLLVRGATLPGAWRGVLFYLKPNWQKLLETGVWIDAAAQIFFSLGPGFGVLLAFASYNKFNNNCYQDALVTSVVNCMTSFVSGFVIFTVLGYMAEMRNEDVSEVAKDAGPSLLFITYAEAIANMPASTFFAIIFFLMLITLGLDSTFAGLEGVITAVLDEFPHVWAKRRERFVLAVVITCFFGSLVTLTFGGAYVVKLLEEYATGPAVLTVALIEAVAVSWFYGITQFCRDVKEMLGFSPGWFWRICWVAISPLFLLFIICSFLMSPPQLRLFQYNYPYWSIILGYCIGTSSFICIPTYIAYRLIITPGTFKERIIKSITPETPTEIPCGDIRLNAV
# Sequence of hDAT (Q01959 whole entry): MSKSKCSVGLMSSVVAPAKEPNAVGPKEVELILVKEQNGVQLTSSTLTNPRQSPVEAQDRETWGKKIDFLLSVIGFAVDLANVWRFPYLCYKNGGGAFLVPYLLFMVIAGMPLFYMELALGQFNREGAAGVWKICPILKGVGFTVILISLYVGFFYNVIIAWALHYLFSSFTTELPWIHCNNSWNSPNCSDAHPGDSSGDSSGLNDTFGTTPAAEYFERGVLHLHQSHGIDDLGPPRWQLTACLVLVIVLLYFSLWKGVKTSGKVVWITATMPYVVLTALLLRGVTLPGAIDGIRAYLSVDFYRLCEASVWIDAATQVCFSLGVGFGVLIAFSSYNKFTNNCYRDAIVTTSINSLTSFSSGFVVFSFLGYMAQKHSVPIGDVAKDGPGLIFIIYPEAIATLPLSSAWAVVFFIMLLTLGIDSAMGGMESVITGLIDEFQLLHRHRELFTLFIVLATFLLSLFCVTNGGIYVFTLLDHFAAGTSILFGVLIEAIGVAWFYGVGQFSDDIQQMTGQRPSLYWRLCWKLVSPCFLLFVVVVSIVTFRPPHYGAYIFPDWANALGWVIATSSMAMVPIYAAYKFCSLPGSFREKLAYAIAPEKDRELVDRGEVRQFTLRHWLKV
SMILES,IC50 (G-401 cells) [nM],IC50 (Kuramochi cells) [nM],IC50 (RMGI cells) [nM],solubility (Solubility test; [2]) [µg/mL],solubility (Solubility test; [3]) [µg/mL],"Papp at 4 h [1, 4] [×10⁻⁶ cm/s]","Papp at 4 h [1, 5] [×10⁻⁶ cm/s]",antitumor effect (in words) (G-401 xenograft),T/C (G-401 xenograft; 20 mg/kg) [%],inhibition at 10 µM (hDAT) [%],inhibition at 10 µM (hSERT) [%],T/C (G-401 xenograft; 10 mg/kg) [%]
"O=C1N[C@]2(C[C@@H](F)c3cc(-c4cnn(C5CN(C6COC6)C5)c4)ccc32)C(=O)N1CC(=O)N(Cc1ccc(F)cn1)C1(C(F)(F)F)COC1 [Example 7, 2-[(1′S,3′R)-3′-fluoro-5′-{1-[1-(oxetan-3-yl)azetidin-3-yl]-1H-pyrazol-4-yl}-2,5-dioxo-2′,3′-dihydrospiro[imidazolidine-4,1′-inden]-1-yl]-N-[(5-fluoropyridin-2-yl)methyl]-N-[3-(trifluoromethyl)oxetan-3-yl]acetamide]",44,298,35,4600,> 10000,3,5.1,strong antitumor effects,40,7,-1,
"CN1CC(N(Cc2ccc(F)cc2)C(=O)CN2C(=O)N[C@]3(C[C@@H](F)c4cc(-c5cnn(C)c5)ccc43)C2=O)(C(F)(F)F)C1 [Example 10, 2-[(1′S,3′R)-3′-fluoro-5′-(1-methyl-1H-pyrazol-4-yl)-2,5-dioxo-2′,3′-dihydrospiro[imidazolidine-4,1′-inden]-1-yl]-N-[(4-fluorophenyl)methyl]-N-[1-methyl-3-(trifluoromethyl)azetidin-3-yl]acetamide]",10,66,6,1600,> 10000,23.9,28.6,strong antitumor effects,,6,-5,73
"CN1CC(N(Cc2ccc(F)cn2)C(=O)CN2C(=O)N[C@]3(C[C@@H](F)c4cc(-c5cnn(C)c5)ccc43)C2=O)(C(F)(F)F)C1 [Example 20, 2-[(1′S,3′R)-3′-fluoro-5′-(1-methyl-1H-pyrazol-4-yl)-2,5-dioxo-2′,3′-dihydrospiro[imidazolidine-4,1′-inden]-1-yl]-N-[(5-fluoropyridin-2-yl)methyl]-N-[1-methyl-3-(trifluoromethyl)azetidin-3-yl]acetamide]",36,320,43,8600,> 10000,7.8,21.9,strong antitumor effects,,46,-1,53
"O=C1N[C@]2(C[C@@H](F)c3cc(-c4cnn(C5CCN(C6COC6)CC5)c4)ccc32)C(=O)N1CC(=O)N(Cc1ccc(F)cn1)C1(C(F)(F)F)COC1 [Example 23, 2-[(1′S,3′R)-3′-fluoro-5′-{1-[1-(oxetan-3-yl)piperidin-4-yl]-1H-pyrazol-4-yl}-2,5-dioxo-2′,3′-dihydrospiro[imidazolidine-4,1′-inden]-1-yl]-N-[(5-fluoropyridin-2-yl)methyl]-N-[3-(trifluoromethyl)oxetan-3-yl]acetamide]",82,591,54,8600,> 10000,3.2,7,strong antitumor effects,54,7,3,
"CN1CC(N(Cc2ccc(F)cn2)C(=O)CN2C(=O)N[C@]3(C[C@@H](F)c4cc(-c5cnn(C6COC6)c5)ccc43)C2=O)(C(F)(F)F)C1 [Example 24, 2-{(1′S,3′R)-3′-fluoro-5′-[1-(oxetan-3-yl)-1H-pyrazol-4-yl]-2,5-dioxo-2′,3′-dihydrospiro[imidazolidine-4,1′-inden]-1-yl}-N-[(5-fluoropyridin-2-yl)methyl]-N-[1-methyl-3-(trifluoromethyl)azetidin-3-yl]acetamide]",36,399,37,> 10000,> 10000,1.6,8.2,strong antitumor effects,44,6,15,

# — patent publication US20250257055A1, “TERTIARY AMIDE DERIVATIVES SUBSTITUTED WITH 4-MEMBERED RING STRUCTURE” (Sumitomo Pharma Co., Ltd., priority 2024, published 2025)
